According to the NIST ThermoML archive (doi:10.1016/j.jct.2011.09.011):

Experiment: excess molar enthalpy (molar enthalpy of mixing); xn = mol fraction of the nth substance listed
Conditions: 101 kPa, Liquid, Parr 1455 solution calorimeter

CCCCCCCCCO [nonan-1-ol] + CC#N
excess molar enthalpy [kJ/mol]
Conditions	298.15 K	303.15 K	308.15 K
x1 = 0.0899	1.06	1.24	1.29
x1 = 0.1141	1.27	1.47	1.52
x1 = 0.1501	1.53	1.76	1.84
x1 = 0.1975	1.81	2.09	2.2
x1 = 0.2673	2.16	2.48	2.62
x1 = 0.3318	2.4	2.72	2.88
x1 = 0.4217	2.62	2.96	3.12
x1 = 0.443	2.64	2.97	3.1
x1 = 0.4659	2.66	2.97	3.09
x1 = 0.4906	2.67	2.95	3.06
x1 = 0.5175	2.67	2.93	3.01
x1 = 0.5468	2.64	2.88	2.95
x1 = 0.5787	2.59	2.81	2.87
x1 = 0.6138	2.51	2.71	2.76
x1 = 0.6524	2.4	2.58	2.62
x1 = 0.695	2.23	2.4	2.44
x1 = 0.7425	2.02	2.15	2.21
x1 = 0.7955	1.73	1.83	1.9
x1 = 0.8552	1.35	1.43	1.49
x1 = 0.9228	0.823	0.878	0.902

CCCCCCCCCCO [decan-1-ol] + CC#N
Conditions	excess molar enthalpy [kJ/mol]
298.15 K, x1 = 0.0436	0.717
298.15 K, x1 = 0.0542	0.863
298.15 K, x1 = 0.0678	1.04
298.15 K, x1 = 0.079	1.17
298.15 K, x1 = 0.0919	1.31
298.15 K, x1 = 0.1077	1.47
298.15 K, x1 = 0.127	1.65
298.15 K, x1 = 0.1509	1.84
298.15 K, x1 = 0.181	2.05
298.15 K, x1 = 0.2197	2.29
298.15 K, x1 = 0.271	2.54
298.15 K, x1 = 0.3415	2.81
298.15 K, x1 = 0.3857	2.92
298.15 K, x1 = 0.4394	3.01
298.15 K, x1 = 0.5058	3.03
298.15 K, x1 = 0.5895	2.9
298.15 K, x1 = 0.6985	2.49
298.15 K, x1 = 0.78	2.02
298.15 K, x1 = 0.8433	1.56
298.15 K, x1 = 0.9159	0.928
303.15 K, x1 = 0.0586	1.03
303.15 K, x1 = 0.0678	1.15
303.15 K, x1 = 0.079	1.28
303.15 K, x1 = 0.0919	1.43
303.15 K, x1 = 0.1077	1.59
303.15 K, x1 = 0.127	1.75
303.15 K, x1 = 0.1509	1.93
303.15 K, x1 = 0.181	2.12
303.15 K, x1 = 0.2197	2.34
303.15 K, x1 = 0.271	2.6
303.15 K, x1 = 0.3415	2.88
303.15 K, x1 = 0.3857	2.98
303.15 K, x1 = 0.4394	3.06
303.15 K, x1 = 0.5058	3.08
303.15 K, x1 = 0.5895	2.98
303.15 K, x1 = 0.6985	2.63
303.15 K, x1 = 0.78	2.14
303.15 K, x1 = 0.8433	1.66
303.15 K, x1 = 0.9159	1.02
308.15 K, x1 = 0.0748	1.17
308.15 K, x1 = 0.1008	1.45
308.15 K, x1 = 0.1409	1.83
308.15 K, x1 = 0.1866	2.19
308.15 K, x1 = 0.2546	2.67
308.15 K, x1 = 0.3186	2.99
308.15 K, x1 = 0.4096	3.32
308.15 K, x1 = 0.4314	3.33
308.15 K, x1 = 0.455	3.32
308.15 K, x1 = 0.4807	3.3
308.15 K, x1 = 0.5088	3.26
308.15 K, x1 = 0.5395	3.21
308.15 K, x1 = 0.5734	3.14
308.15 K, x1 = 0.6109	3.03
308.15 K, x1 = 0.6525	2.87
308.15 K, x1 = 0.6991	2.66
308.15 K, x1 = 0.7515	2.37
308.15 K, x1 = 0.8108	1.97
308.15 K, x1 = 0.8785	1.4
308.15 K, x1 = 0.9566	0.593
